Measurements as given in the NIST ThermoML archive (doi:10.1021/je200195q).
± gives the expanded uncertainty stated by the source.

Experiment: activity coefficient (dimensionless); of the first substance listed, at infinite dilution; xn = mol fraction of the nth substance listed
Conditions: 312.55 K; 101 kPa; Liquid; Chromatography; x1 = 0
Work on `C1COCCO1` [1,4-dioxane] + CCn1cc[n+](C)c1.CS(=O)(=O)[O-] yielded an activity coefficient of 2.67 ± 0.18.
`CCC[N+](=O)[O-]` [1-nitropropane] + CCn1cc[n+](C)c1.CS(=O)(=O)[O-] showed an activity coefficient of 4.19 ± 0.28.
For `CC(C)CC(C)(C)C` [2,2,4-trimethylpentane] + CCn1cc[n+](C)c1.CS(=O)(=O)[O-], the activity coefficient was 445 ± 31.
Molecule `CCC(C)CC` [3-methylpentane] + CCn1cc[n+](C)c1.CS(=O)(=O)[O-] has an activity coefficient of 157 ± 11.

Same assay, conditions: 312.8 K; 101 kPa; Liquid; Chromatography; x1 = 0
`Cc1ccccc1C` [1,2-dimethylbenzene] + CCCCCC[n+]1ccn(C)c1.FC(F)(F)C(F)(F)[P-](F)(F)(F)(C(F)(F)C(F)(F)F)C(F)(F)C(F)(F)F gave an activity coefficient of 0.888 ± 0.057.
Work on `Cc1cccc(C)c1` [1,3-dimethylbenzene] + CCCCCC[n+]1ccn(C)c1.FC(F)(F)C(F)(F)[P-](F)(F)(F)(C(F)(F)C(F)(F)F)C(F)(F)C(F)(F)F yielded an activity coefficient of 0.939 ± 0.059.
Work on `Cc1ccc(C)cc1` [1,4-dimethylbenzene] + CCCCCC[n+]1ccn(C)c1.FC(F)(F)C(F)(F)[P-](F)(F)(F)(C(F)(F)C(F)(F)F)C(F)(F)C(F)(F)F yielded an activity coefficient of 0.992 ± 0.062.
Molecule `C1COCCO1` [1,4-dioxane] + CCCCCC[n+]1ccn(C)c1.FC(F)(F)C(F)(F)[P-](F)(F)(F)(C(F)(F)C(F)(F)F)C(F)(F)C(F)(F)F has an activity coefficient of 0.273 ± 0.03.
`C#CCCCCC` [1-heptyne] + CCCCCC[n+]1ccn(C)c1.FC(F)(F)C(F)(F)[P-](F)(F)(F)(C(F)(F)C(F)(F)F)C(F)(F)C(F)(F)F showed an activity coefficient of 2.54 ± 0.17.
For `C#CCCCC` [1-hexyne] + CCCCCC[n+]1ccn(C)c1.FC(F)(F)C(F)(F)[P-](F)(F)(F)(C(F)(F)C(F)(F)F)C(F)(F)C(F)(F)F, the activity coefficient was 1.94 ± 0.13.
In the case of `CCC[N+](=O)[O-]` [1-nitropropane] + CCCCCC[n+]1ccn(C)c1.FC(F)(F)C(F)(F)[P-](F)(F)(F)(C(F)(F)C(F)(F)F)C(F)(F)C(F)(F)F, the activity coefficient is reported as 0.452 ± 0.036.
`OCC(F)(F)F` [2,2,2-trifluoroethanol] + CCCCCC[n+]1ccn(C)c1.FC(F)(F)C(F)(F)[P-](F)(F)(F)(C(F)(F)C(F)(F)F)C(F)(F)C(F)(F)F showed an activity coefficient of 0.987 ± 0.062.
For `CC(C)CC(C)(C)C` [2,2,4-trimethylpentane] + CCCCCC[n+]1ccn(C)c1.FC(F)(F)C(F)(F)[P-](F)(F)(F)(C(F)(F)C(F)(F)F)C(F)(F)C(F)(F)F, the activity coefficient was 7.98 ± 0.54.
Molecule `CC(C)CO` [2-methyl-1-propanol] + CCCCCC[n+]1ccn(C)c1.FC(F)(F)C(F)(F)[P-](F)(F)(F)(C(F)(F)C(F)(F)F)C(F)(F)C(F)(F)F has an activity coefficient of 2.77 ± 0.19.
With `CCC(C)CC` [3-methylpentane] + CCCCCC[n+]1ccn(C)c1.FC(F)(F)C(F)(F)[P-](F)(F)(F)(C(F)(F)C(F)(F)F)C(F)(F)C(F)(F)F the activity coefficient was 5.63 ± 0.38.
For `CC#N` [acetonitrile] + CCCCCC[n+]1ccn(C)c1.FC(F)(F)C(F)(F)[P-](F)(F)(F)(C(F)(F)C(F)(F)F)C(F)(F)C(F)(F)F, the activity coefficient was 0.295 ± 0.031.

Same assay, conditions: 322.45 K; 101 kPa; Liquid; Chromatography; x1 = 0
For `C1COCCO1` [1,4-dioxane] + CCn1cc[n+](C)c1.CS(=O)(=O)[O-], the activity coefficient was 2.67 ± 0.18.
With `CCC[N+](=O)[O-]` [1-nitropropane] + CCn1cc[n+](C)c1.CS(=O)(=O)[O-] the activity coefficient was 2.7 ± 0.18.
`CC(C)CC(C)(C)C` [2,2,4-trimethylpentane] + CCn1cc[n+](C)c1.CS(=O)(=O)[O-] gave an activity coefficient of 387 ± 27.
Work on `CCC(C)CC` [3-methylpentane] + CCn1cc[n+](C)c1.CS(=O)(=O)[O-] yielded an activity coefficient of 135 ± 9.3.

Same assay, conditions: 322.55 K; 101 kPa; Liquid; Chromatography; x1 = 0
With `Cc1ccccc1C` [1,2-dimethylbenzene] + CCCCn1cc[n+](C)c1.O=S(=O)([N-]S(=O)(=O)C(F)(F)C(F)(F)F)C(F)(F)C(F)(F)F the activity coefficient was 1.87 ± 0.13.
In the case of `Cc1cccc(C)c1` [1,3-dimethylbenzene] + CCCCn1cc[n+](C)c1.O=S(=O)([N-]S(=O)(=O)C(F)(F)C(F)(F)F)C(F)(F)C(F)(F)F, the activity coefficient is reported as 2.02 ± 0.14.
Molecule `Cc1ccc(C)cc1` [1,4-dimethylbenzene] + CCCCn1cc[n+](C)c1.O=S(=O)([N-]S(=O)(=O)C(F)(F)C(F)(F)F)C(F)(F)C(F)(F)F has an activity coefficient of 2.05 ± 0.14.
`C1COCCO1` [1,4-dioxane] + CCCCn1cc[n+](C)c1.O=S(=O)([N-]S(=O)(=O)C(F)(F)C(F)(F)F)C(F)(F)C(F)(F)F gave an activity coefficient of 0.429 ± 0.035.
In the case of `C#CCCCCC` [1-heptyne] + CCCCn1cc[n+](C)c1.O=S(=O)([N-]S(=O)(=O)C(F)(F)C(F)(F)F)C(F)(F)C(F)(F)F, the activity coefficient is reported as 3.91 ± 0.27.
`C#CCCCC` [1-hexyne] + CCCCn1cc[n+](C)c1.O=S(=O)([N-]S(=O)(=O)C(F)(F)C(F)(F)F)C(F)(F)C(F)(F)F showed an activity coefficient of 2.86 ± 0.2.
`CCC[N+](=O)[O-]` [1-nitropropane] + CCCCn1cc[n+](C)c1.O=S(=O)([N-]S(=O)(=O)C(F)(F)C(F)(F)F)C(F)(F)C(F)(F)F showed an activity coefficient of 0.769 ± 0.05.
In the case of `OCC(F)(F)F` [2,2,2-trifluoroethanol] + CCCCn1cc[n+](C)c1.O=S(=O)([N-]S(=O)(=O)C(F)(F)C(F)(F)F)C(F)(F)C(F)(F)F, the activity coefficient is reported as 0.457 ± 0.036.
For `CC(C)CC(C)(C)C` [2,2,4-trimethylpentane] + CCCCn1cc[n+](C)c1.O=S(=O)([N-]S(=O)(=O)C(F)(F)C(F)(F)F)C(F)(F)C(F)(F)F, the activity coefficient was 13.3 ± 0.91.
`CC(C)CO` [2-methyl-1-propanol] + CCCCn1cc[n+](C)c1.O=S(=O)([N-]S(=O)(=O)C(F)(F)C(F)(F)F)C(F)(F)C(F)(F)F gave an activity coefficient of 2.26 ± 0.15.
Molecule `CCC(C)CC` [3-methylpentane] + CCCCn1cc[n+](C)c1.O=S(=O)([N-]S(=O)(=O)C(F)(F)C(F)(F)F)C(F)(F)C(F)(F)F has an activity coefficient of 8.23 ± 0.56.
`CC#N` [acetonitrile] + CCCCn1cc[n+](C)c1.O=S(=O)([N-]S(=O)(=O)C(F)(F)C(F)(F)F)C(F)(F)C(F)(F)F gave an activity coefficient of 0.528 ± 0.039.

Same assay, conditions: 323.1 K; 101 kPa; Liquid; Chromatography; x1 = 0
Work on `Cc1ccccc1C` [1,2-dimethylbenzene] + CCCCCCCCCCn1cc[n+](CCCCCCCCCC)c1C.O=S(=O)([N-]S(=O)(=O)C(F)(F)F)C(F)(F)F yielded an activity coefficient of 0.626 ± 0.043.
`Cc1cccc(C)c1` [1,3-dimethylbenzene] + CCCCCCCCCCn1cc[n+](CCCCCCCCCC)c1C.O=S(=O)([N-]S(=O)(=O)C(F)(F)F)C(F)(F)F showed an activity coefficient of 0.645 ± 0.044.
Work on `Cc1ccc(C)cc1` [1,4-dimethylbenzene] + CCCCCCCCCCn1cc[n+](CCCCCCCCCC)c1C.O=S(=O)([N-]S(=O)(=O)C(F)(F)F)C(F)(F)F yielded an activity coefficient of 0.647 ± 0.044.
Molecule `C1COCCO1` [1,4-dioxane] + CCCCCCCCCCn1cc[n+](CCCCCCCCCC)c1C.O=S(=O)([N-]S(=O)(=O)C(F)(F)F)C(F)(F)F has an activity coefficient of 0.463 ± 0.036.
`C#CCCCCC` [1-heptyne] + CCCCCCCCCCn1cc[n+](CCCCCCCCCC)c1C.O=S(=O)([N-]S(=O)(=O)C(F)(F)F)C(F)(F)F gave an activity coefficient of 1.06 ± 0.067.
With `C#CCCCC` [1-hexyne] + CCCCCCCCCCn1cc[n+](CCCCCCCCCC)c1C.O=S(=O)([N-]S(=O)(=O)C(F)(F)F)C(F)(F)F the activity coefficient was 0.925 ± 0.058.
`CCC[N+](=O)[O-]` [1-nitropropane] + CCCCCCCCCCn1cc[n+](CCCCCCCCCC)c1C.O=S(=O)([N-]S(=O)(=O)C(F)(F)F)C(F)(F)F gave an activity coefficient of 0.504 ± 0.038.
`OCC(F)(F)F` [2,2,2-trifluoroethanol] + CCCCCCCCCCn1cc[n+](CCCCCCCCCC)c1C.O=S(=O)([N-]S(=O)(=O)C(F)(F)F)C(F)(F)F showed an activity coefficient of 0.399 ± 0.034.
With `CC(C)CO` [2-methyl-1-propanol] + CCCCCCCCCCn1cc[n+](CCCCCCCCCC)c1C.O=S(=O)([N-]S(=O)(=O)C(F)(F)F)C(F)(F)F the activity coefficient was 1.3 ± 0.084.
For `CCC(C)CC` [3-methylpentane] + CCCCCCCCCCn1cc[n+](CCCCCCCCCC)c1C.O=S(=O)([N-]S(=O)(=O)C(F)(F)F)C(F)(F)F, the activity coefficient was 1.71 ± 0.11.
In the case of `CC#N` [acetonitrile] + CCCCCCCCCCn1cc[n+](CCCCCCCCCC)c1C.O=S(=O)([N-]S(=O)(=O)C(F)(F)F)C(F)(F)F, the activity coefficient is reported as 0.47 ± 0.037.

Same assay, conditions: 332.45 K; 101 kPa; Liquid; Chromatography; x1 = 0
`C1COCCO1` [1,4-dioxane] + CCn1cc[n+](C)c1.CS(=O)(=O)[O-] showed an activity coefficient of 2.66 ± 0.18.
Work on `CCC[N+](=O)[O-]` [1-nitropropane] + CCn1cc[n+](C)c1.CS(=O)(=O)[O-] yielded an activity coefficient of 1.73 ± 0.12.
`CC(C)CC(C)(C)C` [2,2,4-trimethylpentane] + CCn1cc[n+](C)c1.CS(=O)(=O)[O-] showed an activity coefficient of 334 ± 23.
In the case of `CCC(C)CC` [3-methylpentane] + CCn1cc[n+](C)c1.CS(=O)(=O)[O-], the activity coefficient is reported as 115 ± 7.9.

Same assay, conditions: 332.85 K; 101 kPa; Liquid; Chromatography; x1 = 0
Work on `Cc1ccccc1C` [1,2-dimethylbenzene] + CCCCCC[n+]1ccn(C)c1.FC(F)(F)C(F)(F)[P-](F)(F)(F)(C(F)(F)C(F)(F)F)C(F)(F)C(F)(F)F yielded an activity coefficient of 0.947 ± 0.06.
With `Cc1cccc(C)c1` [1,3-dimethylbenzene] + CCCCCC[n+]1ccn(C)c1.FC(F)(F)C(F)(F)[P-](F)(F)(F)(C(F)(F)C(F)(F)F)C(F)(F)C(F)(F)F the activity coefficient was 0.997 ± 0.062.
With `Cc1ccc(C)cc1` [1,4-dimethylbenzene] + CCCCCC[n+]1ccn(C)c1.FC(F)(F)C(F)(F)[P-](F)(F)(F)(C(F)(F)C(F)(F)F)C(F)(F)C(F)(F)F the activity coefficient was 1.03 ± 0.065.
In the case of `C1COCCO1` [1,4-dioxane] + CCCCCC[n+]1ccn(C)c1.FC(F)(F)C(F)(F)[P-](F)(F)(F)(C(F)(F)C(F)(F)F)C(F)(F)C(F)(F)F, the activity coefficient is reported as 0.327 ± 0.032.
In the case of `C#CCCCCC` [1-heptyne] + CCCCCC[n+]1ccn(C)c1.FC(F)(F)C(F)(F)[P-](F)(F)(F)(C(F)(F)C(F)(F)F)C(F)(F)C(F)(F)F, the activity coefficient is reported as 2.5 ± 0.17.
For `C#CCCCC` [1-hexyne] + CCCCCC[n+]1ccn(C)c1.FC(F)(F)C(F)(F)[P-](F)(F)(F)(C(F)(F)C(F)(F)F)C(F)(F)C(F)(F)F, the activity coefficient was 1.89 ± 0.13.
`CCC[N+](=O)[O-]` [1-nitropropane] + CCCCCC[n+]1ccn(C)c1.FC(F)(F)C(F)(F)[P-](F)(F)(F)(C(F)(F)C(F)(F)F)C(F)(F)C(F)(F)F showed an activity coefficient of 0.451 ± 0.036.
`OCC(F)(F)F` [2,2,2-trifluoroethanol] + CCCCCC[n+]1ccn(C)c1.FC(F)(F)C(F)(F)[P-](F)(F)(F)(C(F)(F)C(F)(F)F)C(F)(F)C(F)(F)F gave an activity coefficient of 0.891 ± 0.057.
With `CC(C)CC(C)(C)C` [2,2,4-trimethylpentane] + CCCCCC[n+]1ccn(C)c1.FC(F)(F)C(F)(F)[P-](F)(F)(F)(C(F)(F)C(F)(F)F)C(F)(F)C(F)(F)F the activity coefficient was 7.13 ± 0.49.
For `CC(C)CO` [2-methyl-1-propanol] + CCCCCC[n+]1ccn(C)c1.FC(F)(F)C(F)(F)[P-](F)(F)(F)(C(F)(F)C(F)(F)F)C(F)(F)C(F)(F)F, the activity coefficient was 2.13 ± 0.14.
With `CCC(C)CC` [3-methylpentane] + CCCCCC[n+]1ccn(C)c1.FC(F)(F)C(F)(F)[P-](F)(F)(F)(C(F)(F)C(F)(F)F)C(F)(F)C(F)(F)F the activity coefficient was 5.05 ± 0.34.
